# Experimental data as given in patent US20230000888A1, “NAD-PRECURSORS AND DIETARY RESTRICTION FOR TREATING AGE RELATED MEDICAL CONDITIONS” (Leibniz-Institut für Alternsforschung - …, priority 2019, published 2023).
# Experiments:
# [1] = test system: HSCs (CD150+CD34−Flt3−LSK); assay: Culture of freshly isolated HSCs with metabolic inhibitors, total cell numbers by FACS after 5 days; type: cell-based, mice; conditions: for cell numbers 5 days after induction of the inhibitor treatment, HSCs from young mice / sensitivity to respond with a reduction in cell growth, HSCs from old mice: inhibitor of mitochondrial nutrient uptake 9 μM, FIG. 6D; for sensitivity to respond with a reduction in cell growth, HSCs from old mice: compared to young; for cell numbers 5 days after initiation of the treatment, HSCs from old mice compared to HSCs from young mice: 2-DG 3 mM, Oligomycin 1.8 nM, 1,500 HSCs per well, FIG. 6C
# Method: (C-E) One-thousand-five-hundred, freshly isolated HSCs (CD150^+CD34^−Flt3^−LSK) from young or old mice were cultured per well (96-well plate). (C) HSCs were exposed to 2-DG (3 mM), Oligomycin (=Oligo, 1.8 nM), or DMSO as control (=Con). Total cell numbers per well were determined by FACS after 5 days. Young mice (4 months, n=4) and old mice (24 months, n=6). Data are normally distributed (Shapiro-Wilk test). P-values were calculated by t-test with Welch's correction. Error bars depict SD. (D) HSCs were cultured with inhibitors that block the mitochondrial uptake of […] (BPTES, 9 μM), fatty acids (Etomoxir, 9 μM), or pyruvate (UK5099, 9 μM). Total cell numbers were counted by FACS after 5 days. Young mice (3-4 months, n=5) and old mice (26 months, n=4). Data are normally distributed (Shapiro-Wilk test). P-values were calculated by unpaired t-test with Welch's correction. (E) HSCs were exposed to a combination of 3 inhibitors (3 inhibitors=3I, same as in D) at a concentration of 6 μM (each) or to DMSO (Con). Young mice (2-3 months, n=5) and old mice (30-31 months, n=5). Data are normally distributed (Shapiro-Wilk test). P-values were calculated using 2-way ANOVA with Tukey's multiple comparisons test. Error bars depict SD.
# To test the functional relevance of these aging-associated changes in the proteome of HSCs, freshly isolated HSCs were exposed to treatment with oligomycin (an inhibitor of mitochondrial oxidative phosphorylation) or to treatment with 2-Deoxy-D-glucose (2-DG) in culture. […] Similar results were obtained after inhibition of nutrient influx into mitochondria. In this experiment, freshly isolated HSCs were incubated with compounds that inhibit the influx of nutrients into mitochondria (BPTES for glutamine, Etomoxir for fatty acids, or UK5099 for pyruvate).
# For testing the response of HSPCs to the blocking of glycolysis or mitochondrial ATP synthesis, 2-DG (Sigma, D8375) or oligomycin A (Sigma, 75351) were used. For the inhibition of nutrient uptake into mitochondria, three inhibitors (3I) were used. BPTES (Sigma, SML0601) blocks […] uptake, Etomoxir (Sigma E1905) blocks Fatty acids uptake, and UK5099 (Sigma PZ0160) blocks pyruvate uptake. The final concentration of each inhibitor in the culture medium is 6 μM. Same amount of DMSO was used in the medium as control. For determination of cell number after NR treatment 500 HSCs from young (2-3 months) and old (22-24 months) were pre-incubated either with 1 mM NR (provided by Prof. Johan Auwerx Lab) or DMSO as control for 2 days followed by 2 days treatment with the inhibitors (BPTES, Etomoxir and UK5099, 6 μM each) or same amount of DMSO as control. The cells were then analyzed by BD LSR fortessa.
# [2] = test system: HSCs (CD150+CD34−Flt3−LSK); assay: Culture of HSCs from FCCP- or vehicle-treated mice with 3I-treatment, total cell numbers; type: cell-based; conditions: HSCs from high-dose FCCP-treated young mice; FIG. 6G
# Method: (F,G) Young, 3-4 month old mice were treated within one week with two intraperitoneal injections of FCCP on day-1 and day-4 (high-dose: 4.8 mg/Kg or low-dose: 1.2 mg/Kg) or with vehicle control (10% DMSO) (n=4 mice per group). One week after the start of the treatment (day-7), total bone marrow cells were analyzed and used for culture experiments. […] (G) 2,500 freshly isolated HSCs from vehicle-treated of high-dose FCCP-treated animals were cultured and exposed to 3I-treatment (same concentration as in FIG. 6E) or to vehicle-treatment (Con). The histogram depicts the total cell numbers at 4 days after culture initiation. (F,G) Data are normally distributed (Shapiro-Wilk test) and p-values were calculated using one-way ANOVA (F) and two-way ANOVA (G) with Tukey's multiple comparisons test. Error bars depict SD.
# (§2) To experimentally test whether mitochondrial dysfunction would cause an abrogation of adaptive responses of HSCs to reduction in nutrient availability, young mice were exposed the mitochondrial uncoupler FCCP or vehicle (two injections: day-1 and day-4). One week after the first injection, the mice were analyzed and freshly isolated HSCs of FCCP-treated vs. DMSO-treated mice were exposed in culture to the 3 above described inhibitors of mitochondrial nutrient uptake—a combination of BPTES, Etomoxir, and UK5099, referred to from here on as “3I”.
# [3] = test system: HSCs (CD150+CD34−Flt3−LSK); conditions: young mice, two i.p. injections (day-1, day-4), 1.2 or 4.8 mg/Kg, 1 week; FIG. 6F
# Method: (F,G) Young, 3-4 month old mice were treated within one week with two intraperitoneal injections of FCCP on day-1 and day-4 (high-dose: 4.8 mg/Kg or low-dose: 1.2 mg/Kg) or with vehicle control (10% DMSO) (n=4 mice per group). One week after the start of the treatment (day-7), total bone marrow cells were analyzed and used for culture experiments. […] (F,G) Data are normally distributed (Shapiro-Wilk test) and p-values were calculated using one-way ANOVA (F) and two-way ANOVA (G) with Tukey's multiple comparisons test. Error bars depict SD.
# as §2
# Young C57BL/6 wild type mice (3 months) male mice were weighed before the injection. […]
# CMPs = conditions: FIG. 8H
# Method: (H) Young, 3-4-month old mice were treated one week with two intraperitoneal injections of FCCP/week (high-dose: 4.8 mg/Kg or low-dose: 1.2 mg/Kg) or with vehicle control (10% DMSO) (n=4 mice per group). One week after the start of the treatment, CMPs were freshly isolated and exposed for 12h in culture to a combination of 3 inhibitors of mitochondrial nutrient uptake (31: 6 μM of each BPTES, Etomoxir, and UK5099) or DMSO control (Con). Statistical analysis: The data were normally distributed (Shapiro-Wilk) and p-values were calculated by 2-way ANOVA with Tukey's multiple comparisons test. Error bars depict SD.
# To experimentally test this conclusion, CMPs from FCCP-treated vs. control treated young mice (see above) were exposed for 12 hours to 3I-treatment in culture and adaptive response in OCR were measured by Seahorse.
# Young C57BL/6 wild type mice (3 months) male mice were weighed before the injection. The mice were then injected intraperitoneally with low dose (1.2 mg/Kg), high dose (4.82 mg/Kg) of FCCP, or 10% DMSO as control (all drugs were dissolved in 10% DMSO. The drug concentration was adjusted so that the final volume of injection of each injection is 150 pL/mouse. The mice were injected at day 1 and day 4 after weighing. Then they were analyzed at day 6. […]
# [4] = test system: Ldha, Pdha, Nrf1 and Hif1a mRNA in HSCs; assay: qPCR of Ldha, Pdha, Nrf1, Hif1a in HSCs after oligomycin-treatment; type: cell-based, mice; conditions: oligomycin 0.6 μM, 3 hours
# Method: FIG. 8. (A,B) Freshly isolated HSCs (CD150^+CD34^−Flt3^−LSK) from young mice (2-3 months, n=4) and old mice (27-30 months, n=6) were exposed to oligomycin-treatment (0.6 μM) or vehicle control (0.1% DMSO) for 3 hours in culture (7000 HSCs per well of a 96-well plate). Gene expressions (relative to β-actin) of (A) Ldha, (B) Pdha were analyzed by qPCR. […] P-values were calculated on transformed data by unpaired t-test with Welch's correction. Error bars depict SD.
# (E,F) The same HSC cultures that were described in FIG. 8A were used to determine the mRNA expression levels of (E) Nrf1 and (F) Hif1a relative to β-actin by qPCR. N=4 for young groups, n=6 for old groups. One outlier (Grubbs test) was removed for the control groups). […] Error bars depict SD.
# (§1) To further test this hypothesis, we analyzed the adaptability of mitochondrial metabolic pathways in freshly isolated HSPCs from young and old mice. First, we exposed freshly isolated HSCs to Oligomycin or to control treatment and we analyzed the RNA expression of Lactate dehydrogenase A (Ldha) and Pyruvate dehydrogenase A (Pdha) 3 hours after isolation and drug treatment. […] Second, we measured the activity of LDH and PDH in freshly isolated HSCs that were exposed for 20 hours to Oligomycin. […] Again HSCs from old mice were irresponsive (FIG. 8C,D). […] Third, we analyzed OCR in freshly isolated CMPs that were treated for 12 hours with inhibitors of mitochondrial nutrient flow (3I) compared to control treatment. As outlined above, CMPs were used for these respirometry experiments, which need higher cell numbers and thus cannot be conducted on HSCs. […] This increase in OCR in young compared to old CMPs was different from freshly isolated MPs (FIG. 3D) likely due to culture induced activation of OCR in young CMPs, which was impaired in old CMPs by pre-existing, chronic mitochondrial dysfunction.
# [5] = test system: LDH and PDH activity in HSCs; assay: Activity of LDH and PDH in cultured HSCs after oligomycin-treatment; type: cell-based, mice; conditions: oligomycin 2.4 nM, 20 hours
# Method: (C,D) Freshly isolated HSCs (CD150^+CD34^−Flt3^−LSK) from young mice (3-4 months, n=7) and old mice (24-25 months, n=7) were cultured overnight (7,000 HSCs per well of a 96-well plate). Eighteen hours later, HSCs were exposed to oligomycin-treatment (2.4 nM) or vehicle control (0.04% DMSO). After 20h treatment, 1,000 cells from the cultures were isolated by FACS to analyze the activity of (C) LDH and (D) PDH. The histograms depict the data scaled to the average of young, control-treated HSCs set to 1. Data are normally distributed (Shapiro-Wilk test). P-values were calculated by two-way ANOVA with Tukey's multiple comparison tests. Error bars depict SD.
# as §1
compound,measurement,setting,value
N#C/C(=C\c1cn(-c2ccccc2)c2ccccc12)C(=O)O [UK5099],"cell numbers 5 days after induction of the inhibitor treatment, HSCs from young mice",[1],strong reduction in cell numbers
same,"sensitivity to respond with a reduction in cell growth, HSCs from old mice",[1],significantly reduced
N#CC(C#N)=NNc1ccc(OC(F)(F)F)cc1 [FCCP],response of HSCs to 3I-treatment by reduction in cell expansion,[2],complete abrogation in responding to 3I-treatment
same,number of phenotypic HSCs in bone marrow,[3],dose dependent increase in the number of phenotypic HSCs in bone marrow
same,responsiveness of CMPs to reduce OCRs in response to 3I-treatment in culture,"CMPs; CMPs from FCCP-treated young mice, 3I 6 μM each, 12 h",dose dependent loss in the responsiveness
same,OCR of freshly isolated CMPs,CMPs; in vivo pre-treatment of young mice with FCCP 1.2 or 4.8 mg/Kg,dose dependent reduction in the OCR
"CC[C@H]1/C=C/C=C/C[C@@H](C)[C@H](O)[C@@](C)(O)C(=O)[C@@H](C)[C@H](O)[C@@H](C)C(=O)[C@@H](C)[C@H](O)[C@@H](C)/C=C/C(=O)O[C@@H]2[C@H](C)[C@H](CC1)O[C@]1(CC[C@H](C)[C@H](C[C@@H](C)O)O1)[C@H]2C [oligomycin, oligomycin A]","cell numbers 5 days after initiation of the treatment, HSCs from old mice compared to HSCs from young mice",[1],less responsive to reduce cell growth
same,Ldha and Pdha RNA expression,"[4]; HSCs from old mice, FIG. 8A,B",irresponsive
same,Ldha RNA expression,"[4]; HSCs from young mice, FIG. 8A",significant suppression of Ldha expression
same,Pdha RNA expression,"[4]; HSCs from young mice, FIG. 8B",concomitant increase in Pdha expression
same,LDH and PDH activity,"[5]; HSCs from old mice, FIG. 8C,D",irresponsive
same,LDH activity,"[5]; HSCs from young mice, FIG. 8C",reduction in LDH activity
same,PDH activity,"[5]; HSCs from young mice, FIG. 8D",PDH activity was maintained
O=C(Cc1ccccc1)Nc1nnc(CCSCCc2nnc(NC(=O)Cc3ccccc3)s2)s1 [BPTES],"cell numbers 5 days after induction of the inhibitor treatment, HSCs from young mice",[1],strong reduction in cell numbers
same,"sensitivity to respond with a reduction in cell growth, HSCs from old mice",[1],significantly reduced
"O=CC[C@@H](O)[C@H](O)[C@H](O)CO [2-DG, 2-Deoxy-D-glucose]","cell numbers 5 days after initiation of the treatment, HSCs from old mice compared to HSCs from young mice",[1],stronger reduction in cell numbers
CCOC(=O)[C@@]1(CCCCCCOc2ccc(Cl)cc2)CO1 [Etomoxir],"cell numbers 5 days after induction of the inhibitor treatment, HSCs from young mice",[1],strong reduction in cell numbers
same,"sensitivity to respond with a reduction in cell growth, HSCs from old mice",[1],significantly reduced
